This note sets out measurements from US20210300900A1, “OGA INHIBITOR COMPOUNDS” (Janssen Pharmaceutica NV, priority 2018, published 2021).

Assay [1] deals with T1, recombinant human Meningioma Expressed Antigen 5 (MGEA5), also referred to as O-GcNAcase (OGA) (Homo sapiens, UniProt O60502).
T1 construct: Full length OGA enzyme was purchased at OnGene (cat #TP322411); purchased OnGene (so in the source)
T1 sequence (O60502 1-916): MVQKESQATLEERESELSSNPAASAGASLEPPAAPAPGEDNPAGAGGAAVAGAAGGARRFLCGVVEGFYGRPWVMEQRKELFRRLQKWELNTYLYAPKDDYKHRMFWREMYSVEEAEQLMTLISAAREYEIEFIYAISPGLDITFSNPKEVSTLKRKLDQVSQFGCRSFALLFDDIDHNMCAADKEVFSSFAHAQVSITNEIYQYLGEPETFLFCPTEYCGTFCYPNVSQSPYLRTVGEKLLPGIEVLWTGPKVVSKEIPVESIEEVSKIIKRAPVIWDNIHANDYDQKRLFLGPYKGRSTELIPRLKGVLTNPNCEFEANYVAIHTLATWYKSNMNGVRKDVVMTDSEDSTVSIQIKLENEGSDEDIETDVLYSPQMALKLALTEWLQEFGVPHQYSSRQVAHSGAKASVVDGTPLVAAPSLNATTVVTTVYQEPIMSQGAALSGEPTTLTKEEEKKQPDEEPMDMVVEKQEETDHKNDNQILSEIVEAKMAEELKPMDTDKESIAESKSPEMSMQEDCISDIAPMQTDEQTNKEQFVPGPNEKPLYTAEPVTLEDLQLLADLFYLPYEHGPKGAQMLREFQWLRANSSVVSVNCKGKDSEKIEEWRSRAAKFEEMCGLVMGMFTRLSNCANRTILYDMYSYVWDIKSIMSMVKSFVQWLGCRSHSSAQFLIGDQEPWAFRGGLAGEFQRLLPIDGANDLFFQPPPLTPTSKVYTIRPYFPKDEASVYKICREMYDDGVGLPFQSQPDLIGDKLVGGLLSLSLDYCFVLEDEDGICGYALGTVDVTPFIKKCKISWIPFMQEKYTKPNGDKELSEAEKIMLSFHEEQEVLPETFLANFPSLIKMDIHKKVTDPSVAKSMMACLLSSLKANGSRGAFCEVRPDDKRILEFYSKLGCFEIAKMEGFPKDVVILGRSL
Nature of the assay: OGA biochemical assay (inhibition of FM-GlcNAc hydrolysis, fluorescence). Particulars: FM-GlcNAc substrate; for Emax: read-out: Enzymatic Emax (%); for IC50: read-out: Enzymatic hOGA, pIC50 (converted). In short, it runs like this:
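Full-length recombinant human OGA (2 nM) pre-incubated 60 min with compound, then FM-GlcNAc (100 uM final) added in 200 mM citrate/phosphate pH 7.2 with 0.005% Tween-20; 6 h at room temperature, stopped with pH 11.0 carbonate. Fluorescein read at ex 485/em 538 nm; IC50 and Hill coefficient from curve fit against no-inhibitor and saturating-standard controls.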

Another assay concerns the target T2, OGA (Homo sapiens, UniProt O60502).
T2 construct: endogenous in cells; host or cells: HEK293 cells inducible for P301L mutant human Tau (isoform 2N4R)
T2 sequence (O60502 1-916): T1 sequence (O60502 1-916)
The assay can be described thus: OGA cellular assay (ICC detection of O-GlcNAcylated proteins in HEK293 cells inducible for P301L mutant human Tau). It counts as cell-based. Particulars: 6 hours incubation; for Emax: HEK293, HEK293 cells inducible for P301L mutant human Tau; for Emax / Cellular Emax (%): maximum = Thiamet G 200 uM; for EC50 / Cellular hOGA; pEC50 / Cellular Emax (%): HEK293 cells inducible for P301L mutant human Tau; for EC50: read-out: Cellular hOGA, pEC50 (converted). As for the experimental part: HEK293 cells inducible for P301L mutant human Tau (isoform 2N4R) were established at Janssen. Thiamet-G was used for both plate validation (high control) and as reference compound (reference EC50 assay validation). OGA inhibition is evaluated through the immunocytochemical (ICC) detection of O-GlcNAcylated proteins by the use of a monoclonal antibody (CTD110.6; Cell Signaling, #9875) detecting O-GlcNAcylated residues as previously described (Dorfmueller et al. 2010 Chemistry & biology, 17:1250). Inhibition of OGA will result in an increase of O-GlcNAcylated protein levels resulting in an increased signal in the experiment. Cell nuclei are stained with Hoechst to give a cell culture quality control and a rough estimate of immediate compounds toxicity, if any. ICC pictures are imaged with a Perkin Elmer Opera Phenix plate microscope and quantified with the provided software Perkin Elmer Harmony 4.1.
Cells were propagated in DMEM high Glucose (Sigma, #D5796) following standard procedures. 2 days before the cell assay cells are split, counted and seeded in Poly-D-Lysine (PDL) coated 96-wells (Greiner, #655946) plate at a cell density of 12,000 cells per cm^2 (4,000 cells per well) in 100 μl of Assay Medium (Low Glucose medium is used to reduce basal levels of GlcNAcylation) (Park et al. 2014 The Journal of biological chemistry 289:13519). At the day of compound test medium from assay plates was removed and replenished with 90 μl of fresh Assay Medium. 10 μl of compounds at a 10 fold final concentration were added to the wells. Plates were centrifuged shortly before incubation in the cell incubator for 6 hours. DMSO concentration was set to 0.2%. Medium is discarded by applying vacuum. For staining of cells medium was removed and cells washed once with 100 μl D-PBS (Sigma, #D8537). From next step onwards unless other stated assay volume was always 50 μl and incubation was performed without agitation and at room temperature. Cells were fixed in 50 μl of a 4% paraformaldehyde (PFA, Alpha aesar, #043368) PBS solution for 15 minutes at room temperature. […] Before analysis samples were washed 2 times manually for 5 minutes in ICC base buffer.
Imaging is performed using Perkin Elmer Phenix Opera using a water 20×objective and recording 9 fields per well. Intensity readout at 488 nm is used as a measure of O-GlcNAcylation level of total proteins in wells. To assess potential toxicity of compounds nuclei were counted using the Hoechst staining. IC50-values are calculated using parametric non-linear regression model fitting. As a maximum inhibition Thiamet G at a 200 uM concentration is present on each plate. In addition, a concentration response of Thiamet G is calculated on each plate.

Turning to `CCOc1cncc(C(C)N2CCC[C@H](Cc3cc(C)nc(C)c3)C2)c1` (mixture of isomers) [Product 44], in assay [1], the maximal response (Emax) is 100% and the IC50 is 26.9 nM. Moreover, at OGA, the Emax came out at 41% and the EC50 is more than 1000 nM.

As for `CC(=O)Nc1cc(C(C)N2CCC[C@H](Cc3cc(C)nc(C(F)(F)F)c3)C2)n[nH]1` (mixture of isomers) [Product 70], in assay [1], the maximal response (Emax) was 101% and the IC50 was 52.5 nM. Also, at OGA, the Emax was 57% and the EC50 is 525 nM.

`COc1cc(C[C@H]2CCCN(C(C)c3nc(OC)ccc3F)C2)cc(C(F)(F)F)n1` (mixture of isomers) [Product 79]: in assay [1], the maximal effect (Emax) was found to be 104% and the IC50 was 43.7 nM. At OGA, the Emax was found to be 8% and the EC50 is more than 1000 nM.

For `COc1cc(NC[C@H]2CCCN(C(C)c3nc(OC)ccc3F)C2)cc(C)n1` (mixture of isomers) [Product 90], in assay [1], the maximum response (Emax) was 102% and the IC50 is 12.3 nM. Also, at OGA, the Emax was determined as 79% and the EC50 was 117 nM.

In the case of `COc1ccc(F)c(C(C)N2CC[C@H](Cc3cc(C)nc(C)c3)C2)n1` (mixture of isomers) [Product 100], in assay [1], the maximal effect (Emax) is 97% and the IC50 was 912 nM. In addition, at OGA, the Emax came out at 10% and the EC50 is more than 1000 nM.

With `CC(=O)Nc1cc(C(C)N2CC[C@H](Cc3cc(C)nc(C(F)(F)F)c3)C2)n[nH]1` (mixture of isomers) [Product 122], in assay [1], the maximal effect (Emax) turned out to be 92% and the IC50 was 1000 nM. Further, on OGA, the maximal response (Emax) amounted to 17% and the EC50 is more than 1000 nM.

As for `COc1cc(C(C)N2CC[C@H](Cc3cc(C)nc(OC)c3)C2)c(F)cn1` (mixture of isomers) [Product 130], in assay [1], the Emax worked out at 95% and the IC50 is 871 nM. Further, at OGA, the Emax came to 4% and the EC50 was more than 1000 nM.

Consider `CC(=O)Nc1ccc(C(C)N2CCC[C@H](Cc3cc(C)nc(C)c3)C2)s1` (mixture of isomers) [Product 134], for which, in assay [1], the maximum response (Emax) turned out to be 101% and the IC50 is 4.68 nM. At OGA, the maximal effect (Emax) amounted to 59% and the EC50 was 240 nM.

Turning to `CC(=O)Nc1nc(C(C)N2CCC[C@H](Cc3cc(C)nc(C)c3)C2)c[nH]1` (mixture of isomers) [Product 136], in assay [1], the maximal response (Emax) was 102% and the IC50 was 110 nM. On OGA, the maximal response (Emax) was found to be 12% and the EC50 was more than 1000 nM.

With `CC(=O)Nc1cc(C(C)N2CCC[C@H](Cc3cc(C)nc(C)c3)C2)n[nH]1` (stereo in doubt) [Product 3], in assay [1], the Emax was 102% and the IC50 was 2.57 nM. Further, at OGA, the maximal effect (Emax) was 84% and the EC50 is 47.9 nM.

In the case of `CC(=O)Nc1cc(CN2CCC[C@H](Cc3cc(C)nc(C)c3)C2)n[nH]1` [Product 1], in assay [1], the maximum response (Emax) was found to be 101% and the IC50 is 21.4 nM. In addition, at OGA, the Emax worked out at 56% and the EC50 was 692 nM.

Regarding `CC(=O)Nc1cc([C@H](C)N2CCC[C@H](Cc3cc(C)nc(C)c3)C2)n[nH]1` [Product 5], in assay [1], the “Enzymatic Emax (%)” value was 104% and the “Enzymatic hOGA; pIC50” value was determined as 8.91. Besides, at OGA, the “Cellular hOGA; pEC50” value was found to be 7.44 and the “Cellular Emax (%)” value was 80%.

For `CC(=O)Nc1cc(CN2CCC[C@H](Cc3cc(C)nc(C)c3)C2)nn1C` [Product 6], in assay [1], the maximal response (Emax) amounted to 100% and the IC50 was 174 nM. For the same compound, on OGA, the maximum response (Emax) worked out at 11% and the EC50 was more than 1000 nM.

As to `CCOc1cc([C@H](C)N2CCC[C@H](Cc3cc(C)nc(C)c3)C2)n[nH]1` [Product 16], in assay [1], the “Enzymatic Emax (%)” value was determined as 101% and the “Enzymatic hOGA; pIC50” value came out at 7.45. In addition, at OGA, the “Cellular hOGA; pEC50” value is given as 6.05 and the “Cellular Emax (%)” value is listed as 31%.

As for `COCc1cc(C(C)N2CCC[C@H](Cc3cc(C)nc(C)c3)C2)n[nH]1` (stereo partly drawn) [Product 19], in assay [1], the maximal effect (Emax) amounted to 101% and the IC50 was 43.7 nM. Also, on OGA, the Emax stood at 42% and the EC50 is more than 1000 nM.

By Emax is commonly meant the size of the effect at its maximum, as opposed to the concentration needed.
